# Measurements from the supplement of paper PMC13380429.
# Assays:
# Conditions in all cases: 72 h
# Vero E6 [1] = test: relative viability EC50 (midpoint between 100% and the lowest measured viability); higher = less toxic
# Calu-3 [2] = test: as above
# U2OS [3] = test: as above
# HepG2 [4] = test: as above
# Caco-2 [5] = test: as above
# Vero E6 [6] = test: drug sensitivity score (DSS) for viability; higher = more toxic; extreme values may be limits of the assay
# Calu-3 [7] = test: as above
# U2OS [8] = test: as above
# HepG2 [9] = test: as above
# Caco-2 [10] = test: as above
# Vero E6 [11] = test: cell viability relative to DMSO; higher = less toxic
# Calu-3 [12] = test: as above
# U2OS [13] = test: as above
# HepG2 [14] = test: as above
# Caco-2 [15] = test: as above
Structure (SMILES),relative viability EC50 (Vero E6 [1]) [µM],relative viability EC50 (Calu-3 [2]) [µM],relative viability EC50 (U2OS [3]) [µM],relative viability EC50 (HepG2 [4]) [µM],relative viability EC50 (Caco-2 [5]) [µM],drug sensitivity score (Vero E6 [6]),drug sensitivity score (Calu-3 [7]),drug sensitivity score (U2OS [8]),drug sensitivity score (HepG2 [9]),drug sensitivity score (Caco-2 [10]),cell viability (Vero E6 [11]; 1 nM) [%],cell viability (Vero E6 [11]; 10 nM) [%],cell viability (Vero E6 [11]; 100 nM) [%],cell viability (Vero E6 [11]; 1000 nM) [%],cell viability (Vero E6 [11]; 10000 nM) [%],cell viability (Calu-3 [12]; 1 nM) [%],cell viability (Calu-3 [12]; 10 nM) [%],cell viability (Calu-3 [12]; 100 nM) [%],cell viability (Calu-3 [12]; 1000 nM) [%],cell viability (Calu-3 [12]; 10000 nM) [%],cell viability (U2OS [13]; 1 nM) [%],cell viability (U2OS [13]; 10 nM) [%],cell viability (U2OS [13]; 100 nM) [%],cell viability (U2OS [13]; 1000 nM) [%],cell viability (U2OS [13]; 10000 nM) [%],cell viability (HepG2 [14]; 1 nM) [%],cell viability (HepG2 [14]; 10 nM) [%],cell viability (HepG2 [14]; 100 nM) [%],cell viability (HepG2 [14]; 1000 nM) [%],cell viability (HepG2 [14]; 10000 nM) [%],cell viability (Caco-2 [15]; 1 nM) [%],cell viability (Caco-2 [15]; 10 nM) [%],cell viability (Caco-2 [15]; 100 nM) [%],cell viability (Caco-2 [15]; 1000 nM) [%],cell viability (Caco-2 [15]; 10000 nM) [%]
O=C(O)CC[C@H]1CC[C@@](c2cc(F)ccc2F)(S(=O)(=O)c2ccc(Cl)cc2)CC1 [MK-0752],> 10,> 10,> 10,> 10,> 10,0,0,0,0,0,96,99.7,94.5,95.5,103,96.3,96.3,100,101,97.8,94.9,105,96,102,97.9,100,96.1,98.9,92.6,108,96.5,106,98.2,99.2,99.5
CC(C)OC(=O)[C@H](C)N[P@@](=O)(OC[C@H]1O[C@@H](n2ccc(=O)[nH]c2=O)[C@](C)(F)[C@@H]1O)Oc1ccccc1 [PSI-7976],> 10,> 10,> 10,> 10,> 10,0,0,0,0,0,95.2,101,91.4,99,108,104,85.4,96.7,93.3,94.2,98.2,93.6,101,99,96.8,89.5,103,92.6,109,113,105,88.7,103,90.2,101
CC12CCC(C(=O)N(CCCCN3CCN(c4ccccn4)CC3)C1=O)C2(C)C (stereo not given) [piricapiron],> 10,> 10,> 10,> 10,> 10,0,0.6,0,0,0,97.2,99.8,101,93.5,104,100,105,101,93.2,85.9,101,103,99.1,101,95.6,106,101,101,102,97.6,87.3,99.7,96.5,98.1,93
CCCN(CCc1cccs1)[C@H]1CCc2c(O)cccc2C1 [rotigotine],> 10,> 10,> 10,> 10,> 10,0,0,0,0,0,93.4,97,90.1,98.5,98.7,105,100,103,100,99.6,95,98,98.4,97,96.6,94.1,91.7,87,107,102,98.7,95.7,103,101,103
COc1ccccc1N1CCN(CCCCNC(=O)c2ccc(-c3ccc(C(C)=O)cc3)cc2)CC1,> 10,> 10,> 10,> 10,> 10,0,0,0,0.5,0,104,99.5,101,102,95.5,101,92.6,110,102,96.5,101,95.8,102,98.4,101,104,104,96.4,94.6,83.8,93.7,94.5,119,106,110
CCOC(=O)c1ccc(N(C)c2csc(-c3ccccc3)n2)cc1 [neuropathiazol],> 10,> 10,> 10,> 10,> 10,0,0,0,0,0,108,103,96.2,101,96.3,92.4,97.2,108,110,97.3,101,97.2,98.8,99.5,99.3,86.2,97.3,103,107,93.2,92.9,94.1,80.2,97.3,104
O[C@@H](C[C@H]1c2ccccc2-c2cncn21)C1CCCCC1 [NLG919],> 10,> 10,> 10,> 10,> 10,0.7,0.1,0,0,0.4,97.3,98.5,93.3,89.8,84.2,106,111,92.7,105,85.6,93.1,93,94,96.7,90.7,108,95.9,102,93.5,94.1,97.6,97,102,95.8,86.3
COc1cc2nc(N3CCN(C(=O)C4CCCO4)CC3)nc(N)c2cc1OC (stereo not given) [terazosin],> 10,> 10,> 10,> 10,> 10,0,0,0,0,0,96.4,95.4,97,92.9,104,96.1,106,105,99.9,96.3,97.8,102,96,101,103,107,96.7,101,103,112,104,95.3,95.4,92.5,95.3
CC1(C)C(=O)N(CCN2CCC(C(=O)c3ccc(F)cc3)CC2)c2ccccc21,> 10,> 10,> 10,> 10,> 10,0,0,0,0,0,96.1,102,91.8,94.2,106,99.5,91.4,90.6,98.4,89.8,97.7,96.3,98.2,95.9,97.8,95.3,102,90.8,97,87.8,88.5,102,104,97.2,91.6
CC(=O)S[C@@H]1CC2=CC(=O)CC[C@]2(C)[C@H]2CC[C@@]3(C)[C@@H](CC[C@@]34CCC(=O)O4)[C@H]12 [spironolactone],> 10,> 10,> 10,> 10,> 10,0,0,0,0,0,101,97.2,97.1,88.7,102,90.7,95.4,99.1,94.5,102,92.9,98.6,97.4,101,102,104,99.7,110,107,107,95.1,96.7,100,99.6,102
CN(C(=O)CN1C(=O)COc2cc(Cl)c(Cl)cc21)[C@@H](CN1CCCC1)c1ccc(-c2cccc(C(N)=O)c2)cc1,2.94,3.79,2.68,3.09,2.94,5.8,4.3,6.2,5.1,5.5,96.9,97,94.9,97.1,2.8,109,111,102,114,7,100,97.1,104,94.1,3.5,95,104,91.5,99,10.5,97.9,99,101,97.1,7.2
C[C@@H]([C@H](O)c1ccc(O)cc1)N1CCC(Cc2ccccc2)CC1 (racemic) [ifenprodil],> 10,> 10,> 10,> 10,> 10,0,0.6,0,0.3,0,101,103,102,98.8,97.6,99.4,96.5,92,91.8,84.1,103,101,99.9,102,98.5,103,99.5,104,92.8,88.2,96.8,101,96.1,98,89.8
CC(C)[C@H]1c2ccc(F)cc2CC[C@@]1(CCN(C)CCCc1nc2ccccc2[nH]1)OC(=O)C1CC1 [NNC-55-0396],2.29,3.14,2.96,2.93,2.95,7.3,5.5,5.8,6,5.7,95.2,96.1,93.5,89.4,-0.1,106,105,100,99.7,2.2,98.9,99.1,94.4,97.2,2.8,109,104,98.7,96.8,0,85.5,102,93.6,97.2,4.5
NCC(CC(=O)O)c1ccccc1 (stereo not given) [fenigam],> 10,> 10,> 10,> 10,> 10,0,0,0,0,0,100,95.8,97.6,101,111,95.4,97.6,100,97.4,97.4,93.5,91.1,97.3,95.4,98.3,95.1,97.2,92.4,106,110,93.3,105,101,87.8,112
O=C(O)c1ccc(-c2ccc3cc(O)c(C45CC6CC(CC(C6)C4)C5)cc3c2)cc1 [CD-1530],> 10,> 10,> 10,> 10,> 10,0,0.1,0.1,0,0.4,93.4,103,95.8,106,103,95.9,99.6,98.8,98.5,88,98.2,96,97.7,93,86.2,108,102,97.4,124,106,90.9,98.9,94.9,84.4,88
O=C(C[S+]([O-])C(c1ccccc1)c1ccccc1)NO (stereo not given) [adrafinil],> 10,> 10,> 10,> 10,> 10,0,0,0,0,0,93.5,85.5,93.8,93,107,103,110,98.4,107,108,97.9,102,97.9,107,99.8,97.6,88.7,97.2,96.1,102,93.8,91.1,91.6,103,101
O=C(Nc1ccccc1)N[C@H]1C[C@H](C(=O)O)Nc2cc(Cl)cc(Cl)c21,> 10,> 10,> 10,> 10,> 10,0,0,0,0,0,106,100,100,96.7,99.8,105,89.8,108,95.8,97.1,98,104,103,105,100,96.4,103,96.3,84.6,104,98.1,104,104,104,92.5
N#Cc1cccc(C(=O)Nc2cc(-c3ccccc3)nn2-c2ccccc2)c1 [CDPPB],> 10,> 10,> 10,> 10,> 10,0,0,0,0,0,98.5,96.2,98.6,99.2,103,101,95,101,97.2,100,92.8,97,97.1,93.9,91.6,106,103,97.8,107,104,93.3,100,108,95.4,102
Cc1ccc(-n2sc(=O)n(Cc3ccc(F)cc3)c2=O)cc1,> 10,> 10,> 10,> 10,> 10,0,0,0,0,0,96.4,97.7,97.1,99.1,93.5,104,83.1,110,98.9,94.3,97.9,98.7,99.6,96.1,108,89.2,107,95.9,96.1,96.1,99.1,97.7,98.4,100,95.9
Cc1oc(-c2ccccc2)nc1CCC(=O)c1ccc(CC2SC(=O)NC2=O)cc1 (stereo not given) [darglitazone],> 10,> 10,> 10,> 10,> 10,4.8,0,0,0,0,96,90.8,83.3,76,83.3,97.4,110,114,111,119,109,98.7,102,102,103,96.9,95,95.8,96.3,95.4,102,95.5,96.2,91.9,91.2
Cc1cc(C(C#N)c2ccc(Cl)cc2)c(Cl)cc1NC(=O)c1cc(I)cc(I)c1O (stereo not given) [closantel],> 10,> 10,> 10,> 10,> 10,0,0,0,0,0,101,98.2,96.2,93.7,101,90.9,95.5,92.3,92.4,95.3,93.3,96.7,97.4,98.8,104,95,95.5,102,86.4,107,97.4,99.6,99.8,97.5,100
COC(=O)C1=C(C)NC(C)=C(C(=O)OCCN(C)Cc2ccccc2)C1c1cccc([N+](=O)[O-])c1 (stereo not given) [nicardipine],> 10,> 10,> 10,> 10,> 10,0,0,0,0,1.9,93.2,106,98.2,103,96.9,91.7,91.5,94.1,90.2,90.2,96.5,103,95.5,98.1,91.3,91.6,100,141,109,95.4,102,120,97.9,84.1,84.8
